Values of other authors in patent publication US20160168384A1, “PORPHYRINOID COMPONENTS, METHOD AND APPARATUS FOR WATER PHOTODISINFECTION” (NIMARTECH LIMITED, priority 2013, published 2016).

Tested on: faecal coliforms
Details: wastewater; micromolar porphyrin; visible light or sunlight, about 4 hours

## C[n+]1ccc(-c2c3nc(c(-c4cc[n+](C)cc4)c4ccc([nH]4)c(-c4cc[n+](C)cc4)c4nc(c(-c5cc[n+](C)cc5)c5ccc2[nH]5)C=C4)C=C3)cc1 [Sample C1, meso-tetra(N,N,N,N-methyl-pyridyl)porphine]
  decrease of coliform counts: at least 5 logs
